{"source": "patent US8067021B2", "about": "“Methods and compositions for delivery of growth factor to fibrous connective tissue” (Affinergy, Inc., priority 2007, dated 2011)", "key": {"[1]": {"test_system": "various growth factors", "assay": "Further binding studies: preference of binding for various growth factors", "conditions": "latter 3 growth factors: no detectable binding", "description": "Since GDFs are also considered as members of the BMP family of proteins, and therefore share significant amino acid sequence homology, some binding cross-reactivity of peptides according to the presently disclosed subject matter with BMP-5 was noted. […] Further binding studies were performed from which was determined the preference of binding of peptides according to the presently disclosed subject matter for various growth factors. […] Thus peptides according to the presently disclosed subject matter show preferential binding to GDF-7, and show binding affinity for fibrous connective tissue-inducing growth factors."}, "[2]": {"assay": "Binding of surface-binding peptide to suture material", "conditions": "braided polyethylene terephthalate fibers", "excerpt": "To illustrate this embodiment, a linker was used to couple a peptide having binding affinity for a surface of an implant with a peptide having binding affinity for fibrous connective tissue-inducing growth factor. […] Similarly, peptides having amino acid sequences of SEQ ID NOs: 1-3 were used individually as representative peptides having binding affinity for fibrous connective tissue-inducing growth factor, and for inclusion as a component in a composition according to the presently disclosed subject matter."}, "[3]": {"molecular_target": "T1, GDF-7 (Mus musculus, UniProt P43029)", "T1 construct": "purchased R&D SYSTEMS", "T1 sequence (P43029 316-461)": "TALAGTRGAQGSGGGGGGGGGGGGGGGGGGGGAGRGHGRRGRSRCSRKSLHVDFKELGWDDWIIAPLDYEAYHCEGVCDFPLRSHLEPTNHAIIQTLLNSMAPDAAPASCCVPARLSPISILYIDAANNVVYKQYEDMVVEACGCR", "assay": "GDF-7 binding by composition immobilized on polyethylene terephthalate suture", "conditions": "0.5 μM of the conjugate, relative to assay background", "excerpt": "Using standard methods for peptide synthesis, amino acid sequences comprising SEQ ID NO:1-3 and SEQ ID NO: 67 were synthesized to contain an amino acid linker sequence (e.g., GSSGK, SEQ ID NO:72) at the C-terminus to which was linked biotin (via the lysine residue). See, for example, SEQ ID NOs: 73-76. Streptavidin (having 4 biotin binding sites) was used in conjunction with the biotin on the biotinylated peptides to form a linker between the two different peptide components. […]\nEach of the three representative compositions according to the presently disclosed subject matter or the control conjugate were added individually to respective wells containing a suture and containing GDF-7 in various concentrations (starting at 100 nM final concentration for the compositions; 0.5 μM of the conjugate) with high salt buffer-T, and incubated for 1 hour at room temperature. […] It was determined in these experiments that maximal growth factor binding to the composition occurs within the first several minutes (e.g., within a time period ranging from 5 to 10 minutes), and that no additional GDF-7 appears to be retained to the surface of the implant in a time period of up to 1 hour of contact with the implant."}}, "note": "Where a SMILES comes first, the peptide text is derived from it. The star is where a group is joined. Biotin = O=C1N[C@H]2[C@H](CS[C@H]2CCCCC(=O)*)N1", "data": [{"molecule": "CC[C@H](C)[C@H](NC(=O)[C@H](CCC(=O)O)NC(=O)[C@H](CCCNC(=N)N)NC(=O)[C@@H]1CCCN1C(=O)CNC(=O)[C@H](CO)NC(=O)[C@@H](N)CO)C(=O)N[C@@H](Cc1c[nH]c2ccccc12)C(=O)N[C@@H](CC(=O)O)C(=O)N[C@@H](CO)C(=O)N[C@@H](CC(C)C)C(=O)N[C@H](C(=O)NCC(=O)N[C@H](C(=O)N[C@H](C(=O)N[C@@H](CC(N)=O)C(=O)N1CCC[C@H]1C(=O)NCC(=O)N[C@@H](Cc1c[nH]c2ccccc12)C(=O)N[C@@H](CO)C(=O)N[C@@H](CCCNC(=N)N)C(=O)NCC(=O)N[C@@H](CO)C(=O)N[C@@H](CO)C(=O)NCC(=O)N[C@@H](CCCCNC(=O)CCCC[C@@H]1SC[C@@H]2NC(=O)N[C@@H]21)C(N)=O)C(C)C)C(C)C)C(C)C", "note": "[SEQ ID NO: 1, ssGPREIWDSLVGVVNPGWsr] (H-SSGPREIWDSLVGVVNPGWSRGSSGK(Biotin)-NH2; N-terminus and C-terminus assumed)", "values": [{"measurement": "preference for binding affinity (from highest relative binding affinity to lowest)", "setting": "[1]", "value": "GDF-7>GDF-5, BMP-2>BMP-6>BMP-5>TGF-β1, TGF-β3, or PDGF-BB"}]}, {"molecule": "CC(C)C[C@H](NC(=O)[C@H](C)NC(=O)[C@H](Cc1c[nH]c2ccccc12)NC(=O)CNC(=O)CNC(=O)[C@@H](NC(=O)CNC(=O)CNC(=O)[C@H](CO)NC(=O)[C@@H](N)CO)C(C)C)C(=O)N[C@@H](Cc1ccccc1)C(=O)N[C@@H](CCC(=O)O)C(=O)N[C@H](C(=O)N[C@@H](CC(C)C)C(=O)N[C@@H](CCCNC(=N)N)C(=O)NCC(=O)N[C@@H](CCCCN)C(=O)N[C@@H](CCC(=O)O)C(=O)N[C@H](C(=O)N[C@@H](CO)C(=O)N[C@@H](CCCNC(=N)N)C(=O)NCC(=O)N[C@@H](CO)C(=O)N[C@@H](CO)C(=O)NCC(=O)N[C@@H](CCCCNC(=O)CCCC[C@@H]1SC[C@@H]2NC(=O)N[C@@H]21)C(N)=O)C(C)C)[C@@H](C)O", "note": "[SEQ ID NO: 2, ssGGVGGWALFETLRGKEVsr] (H-SSGGVGGWALFETLRGKEVSRGSSGK(Biotin)-NH2; N-terminus and C-terminus assumed)", "values": [{"measurement": "preference for binding affinity (from highest relative binding affinity to lowest)", "setting": "[1]", "value": "GDF-7>GDF-5, BMP-2, and BMP-6>BMP-5>TGF-β1, TGF-β3, or PDGF-BB"}]}, {"molecule": "CSCC[C@H](NC(=O)CNC(=O)[C@H](CCC(=O)O)NC(=O)[C@H](Cc1c[nH]c2ccccc12)NC(=O)[C@H](CO)NC(=O)[C@H](CCCNC(=N)N)NC(=O)[C@H](CC(C)C)NC(=O)[C@H](C)NC(=O)[C@H](Cc1c[nH]c2ccccc12)NC(=O)[C@H](CCC(=O)O)NC(=O)[C@H](C)NC(=O)[C@@H](NC(=O)[C@H](CO)NC(=O)[C@@H](N)CO)C(C)C)C(=O)N[C@@H](CCCNC(=N)N)C(=O)N[C@H](C(=O)NCC(=O)N[C@@H](CCC(=O)O)C(=O)N[C@@H](C)C(=O)N[C@@H](CO)C(=O)N[C@@H](CCCNC(=N)N)C(=O)NCC(=O)N[C@@H](CO)C(=O)N[C@@H](CO)C(=O)NCC(=O)N[C@@H](CCCCNC(=O)CCCC[C@@H]1SC[C@@H]2NC(=O)N[C@@H]21)C(N)=O)C(C)C", "note": "[SEQ ID NO: 3, ssVAEWALRSWEGMRVGEAsr] (H-SSVAEWALRSWEGMRVGEASRGSSGK(Biotin)-NH2; N-terminus and C-terminus assumed)", "values": [{"measurement": "preference for binding affinity (from highest relative binding affinity to lowest)", "setting": "[1]", "value": "GDF-7>GDF-5, BMP-2>BMP-6>BMP-5>TGF-β1, TGF-β3, or PDGF-BB"}]}, {"molecule": "SWWGFWNGSAAPVWSR [SEQ ID NO: 67]", "values": [{"measurement": "binding affinity for suture material", "setting": "[2]", "value": "showed binding affinity"}]}, {"molecule": "peptide conjugate: negative control: biotinylated surface-binding peptide bound to streptavidin, without peptide having binding affinity for growth factor", "values": [{"measurement": "binding for GDF-7 on suture", "setting": "[3]", "value": "no appreciable binding"}]}]}
